Laboratory results published in patent US20240072809A1, “ASGPR-BINDING COMPOUNDS FOR THE DEGRADATION OF EXTRACELLULAR PROTEINS” (Avilar Therapeutics, Inc., priority 2020, published 2024).
Bridge positions count the residues as written; N and C are the ends. Peptide text beside a SMILES is read from it. * marks the point of attachment. X1 = O=C(CCOCC(COCCC(=O)NCCOCCOCCOCCOC[C@@]12CO[C@@H](O1)[C@H](NC(=O)C(F)(F)F)[C@@H](O)[C@H]2O)(COCCC(=O)NCCOCCOCCOCCOC[C@@]12CO[C@@H](O1)[C@H](NC(=O)C(F)(F)F)[C@@H](O)[C@H]2O)NC(=O)CCO[C@H]1C[C@H](OCCC(=O)*)C1)NCCOCCOCCOCCOC[C@@]12CO[C@@H](O1)[C@H](NC(=O)C(F)(F)F)[C@@H](O)[C@H]2O; X3 = CO[C@@H]1O[C@H](COCCOCCOCCOCCNC(=O)CCOCC(COCCC(=O)NCCOCCOCCOCCOC[C@H]2O[C@@H](OC)[C@H](NC(C)=O)[C@@H](O)[C@H]2O)(COCCC(=O)NCCOCCOCCOCCOC[C@H]2O[C@@H](OC)[C@H](NC(C)=O)[C@@H](O)[C@H]2O)NC(=O)COCCOCCOCC(=O)*)[C@H](O)[C@H](O)[C@H]1NC(C)=O

Each compound was assayed against ASGPR (Homo sapiens (Human), UniProt P07306) (assay: Affinity to ASGPR measured by surface plasmon resonance (SPR)). Conditions: ASGPR ligands with linker, Table 5; read-out: ASGPR_SPR Binding KD.
Sequence of ASGPR (P07306 whole entry): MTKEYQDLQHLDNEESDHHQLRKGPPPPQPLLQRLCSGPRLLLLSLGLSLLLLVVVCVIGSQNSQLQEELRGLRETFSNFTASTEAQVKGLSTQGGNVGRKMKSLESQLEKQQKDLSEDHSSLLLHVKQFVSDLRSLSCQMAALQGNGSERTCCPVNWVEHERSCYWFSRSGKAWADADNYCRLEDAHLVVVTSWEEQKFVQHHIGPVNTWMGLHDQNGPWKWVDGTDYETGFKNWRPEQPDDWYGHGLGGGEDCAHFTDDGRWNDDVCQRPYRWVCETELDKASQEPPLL
Format: binding
For `CC(C)C[C@@H]1NC(=O)[C@@H](NC(=O)[C@@H](NC(=O)[C@H](CCC(N)=O)NC(=O)[C@H](Cc2cnc[nH]2)NC(=O)CCO[C@H]2C[C@H](OCCC(=O)NC(COCCC(=O)NCCOCCOCCOCCOC[C@@]34CO[C@@H](O3)[C@H](NC(=O)C(F)(F)F)[C@@H](O)[C@H]4O)(COCCC(=O)NCCOCCOCCOCCOC[C@@]34CO[C@@H](O3)[C@H](NC(=O)C(F)(F)F)[C@@H](O)[C@H]4O)COCCC(=O)NCCOCCOCCOCCOC[C@@]34CO[C@@H](O3)[C@H](NC(=O)C(F)(F)F)[C@@H](O)[C@H]4O)C2)C(C)C)CSSC[C@@H](C(=O)N[C@@H](Cc2ccccc2)C(=O)N[C@@H](CO)C(=O)N[C@H](C(N)=O)[C@@H](C)O)NC(=O)[C@H](C(C)C)NC(=O)[C@@H]2CCCN2C(=O)[C@H](CCCNC(=N)N)NC(=O)CNC(=O)[C@H](CCCNC(=N)N)NC(=O)[C@H](Cc2ccc(O)cc2)NC(=O)[C@H](CO)NC1=O` [Compound 31] (X1-HQVCLSYRGRPVCFST-NH2; disulfide 4-13), the Kd was < 100 µM. With `CC(=O)N[C@@H]1CO[C@H](COCCOCCOCCOCCNC(=O)CCOCC(COCCC(=O)NCCOCCOCCOCCOC[C@H]2OC[C@@H](NC(C)=O)[C@@H](O)[C@H]2O)(COCCC(=O)NCCOCCOCCOCCOC[C@H]2OC[C@@H](NC(C)=O)[C@@H](O)[C@H]2O)NC(=O)COCCOCCOCCNc2ccc([N+](=O)[O-])cc2[N+](=O)[O-])[C@H](O)[C@@H]1O` [Compound 33, 3,3′-((2-(2-(2-(2-(2-((2,4-dinitrophenyl)amino)ethoxy)ethoxy)ethoxy)acetamido)propane-1,3-diyl)tris(oxy))tris(N-(1-((2R,3R,4R,5R)-5-acetamido-3,4-dihydroxytetrahydro-2H-pyran-2-yl)-2,5,8,11-tetraoxatridecan-13-yl)propanamide)] the Kd was < 100 µM. For `O=[N+]([O-])c1ccc(NCCOCCOCCOCCOC[C@H]2OC[C@H](Nc3nccc(C(F)(F)F)n3)[C@@H](O)[C@H]2O)c([N+](=O)[O-])c1` [Compound 35, (2R,3R,4R,5S)-2-(13-((2,4-dinitrophenyl)amino)-2,5,8,11-tetraoxatridecyl)-5-((4-(trifluoromethyl)pyrimidin-2-yl)amino)tetrahydro-2H-pyran-3,4-diol], the Kd was < 100 µM.

Same assay, conditions: ASGPR ligands, Table 2; Biacore 8K, 25° C., steady state fit; read-out: SPR Binding External Calculation: KD
`CC1C(Oc2ccccc2)O[C@H](CO)[C@H](O)[C@@H]1O` (stereo in doubt) [Compound A192, (2R,3R,4R,5R,6S)-2-(hydroxymethyl)-5-methyl-6-phenoxytetrahydro-2H-pyran-3,4-diol] was tested, and the Kd was > 1000 µM. In the case of `CO[C@@H]1O[C@H](CO)[C@H](O)[C@H](O)[C@H]1N` [Compound A90, (2R,3R,4R,5R,6R)-5-amino-2-(hydroxymethyl)-6-methoxytetrahydro-2H-pyran-3,4-diol], the Kd is reported as 100 to 500 µM. In the case of `N[C@H]1CO[C@H](CO)[C@H](O)[C@@H]1O` [Compound A92, (2R,3R,4R,5S)-5-amino-2-(hydroxymethyl)tetrahydro-2H-pyran-3,4-diol], the Kd is reported as > 1000 µM. With `N#Cc1sc(N[C@H]2CO[C@H](CO)[C@H](O)[C@@H]2O)nc1Cl` [Compound A95, 4-chloro-2-(((3S,4R,5R,6R)-4,5-dihydroxy-6-(hydroxymethyl)tetrahydro-2H-pyran-3-yl)amino)thiazole-5-carbonitrile] the Kd was < 100 µM. In the case of `OC[C@H]1OC[C@H](Nc2ncc(Cl)cc2F)[C@@H](O)[C@H]1O` [Compound A100], the Kd is reported as < 100 µM. Compound `OC[C@H]1OC[C@H](Nc2ncc(F)cc2F)[C@@H](O)[C@H]1O` [Compound A103] has a Kd of 100 to 500 µM. `CO[C@H]1O[C@H](CO)[C@H](O)[C@H](O)[C@H]1Nc1nc(Cl)ns1` [Compound A105, (2R,3R,4R,5R,6S)-5-((3-chloro-1,2,4-thiadiazol-5-yl)amino)-2-(hydroxymethyl)-6-methoxytetrahydro-2H-pyran-3,4-diol] was tested, and the Kd was < 100 µM. In the case of `CO[C@@H]1O[C@H](CO)[C@H](O)[C@H](O)[C@H]1Nc1nc(Cl)ns1` [Compound A106, (2R,3R,4R,5R,6R)-5-((3-chloro-1,2,4-thiadiazol-5-yl)amino)-2-(hydroxymethyl)-6-methoxytetrahydro-2H-pyran-3,4-diol], the Kd is reported as < 100 µM. In the case of `CO[C@@H]1O[C@H](CO)[C@H](O)[C@H](O)[C@H]1Nc1cccc(F)n1` [Compound A107, (2R,3R,4R,5R,6R)-5-((6-fluoropyridin-2-yl)amino)-2-(hydroxymethyl)-6-methoxytetrahydro-2H-pyran-3,4-diol], the Kd is reported as > 1000 µM. For `CO[C@@H]1O[C@H](CO)[C@H](O)[C@H](O)[C@H]1Nc1nc(Cl)cs1` [Compound A108], the Kd was < 100 µM. In the case of `CO[C@@H]1O[C@H](CO)[C@H](O)[C@H](O)[C@H]1Nc1ncc(Cl)cc1F` [Compound A109], the Kd is reported as < 100 µM. In the case of `CO[C@@H]1O[C@H](CO)[C@H](O)[C@H](O)[C@H]1Nc1nc(=O)[nH]c(=O)[nH]1` [Compound A112, 6-(((2R,3R,4R,5R,6R)-4,5-dihydroxy-6-(hydroxymethyl)-2-methoxytetrahydro-2H-pyran-3-yl)amino)-1,3,5-triazine-2,4(1H,3H)-dione], the Kd is reported as < 100 µM. `CO[C@H]1O[C@H](CO)[C@H](O)[C@H](O)[C@H]1Nc1ncc(Cl)cc1F` [Compound A113] was tested, and the Kd was < 100 µM. `CO[C@@H]1O[C@H](CO)[C@H](O)[C@H](O)[C@H]1Nc1nc(N2CCN(C)CC2)ns1` [Compound A116, (2R,3R,4R,5R,6R)-2-(hydroxymethyl)-6-methoxy-5-((3-(4-methylpiperazin-1-yl)-1,2,4-thiadiazol-5-yl)amino)tetrahydro-2H-pyran-3,4-diol] was tested, and the Kd was < 100 µM. In the case of `CO[C@@H]1O[C@H](CO)[C@H](O)[C@H](O)[C@H]1Nc1nc(N2CCOCC2)ns1` [Compound A117, (2R,3R,4R,5R,6R)-2-(hydroxymethyl)-6-methoxy-5-((3-morpholino-1,2,4-thiadiazol-5-yl)amino)tetrahydro-2H-pyran-3,4-diol], the Kd is reported as 100 to 500 µM. For `C=CC(=O)N[C@H]1[C@H](OC)O[C@H](CO)[C@H](O)[C@@H]1O` [Compound A118, N-((2R,3R,4R,5R,6R)-4,5-dihydroxy-6-(hydroxymethyl)-2-methoxytetrahydro-2H-pyran-3-yl)acrylamide], the Kd was < 100 µM. With `CO[C@@H]1O[C@H](CO)[C@H](O)[C@H](O)[C@H]1n1ccc(=O)cc1` [Compound A119, 1-((2R,3R,4R,5R,6R)-4,5-dihydroxy-6-(hydroxymethyl)-2-methoxytetrahydro-2H-pyran-3-yl)pyridin-4(1H)-one] the Kd was < 100 µM. With `CC(=O)N[C@@H]1CO[C@H](CO)[C@H](O)[C@@H]1O` [Compound A127, N-((3R,4R,5R,6R)-4,5-dihydroxy-6-(hydroxymethyl)tetrahydro-2H-pyran-3-yl)acetamide] the Kd was < 100 µM. `N[C@@H]1CO[C@H](CO)[C@H](O)[C@@H]1O` [Compound A128, (2R,3R,4R,5R)-5-amino-2-(hydroxymethyl)tetrahydro-2H-pyran-3,4-diol] was tested, and the Kd was > 1000 µM.

Same assay, conditions: ASGPR ligands, Table 4; class symbols; read-out: ASGPR_PR Binding KD
`CO[C@H]1O[C@H](CO)[C@H](O)[C@H](O)[C@H]1N` [Compound A91, (2R,3R,4R,5R,6S)-5-amino-2-(hydroxymethyl)-6-methoxytetrahydro-2H-pyran-3,4-diol] was tested, and the Kd was < 100 µM. Compound `CS(=O)(=O)N[C@@H]1CO[C@H](CO)[C@H](O)[C@@H]1O` [Compound A131, N-((3R,4R,5R,6R)-4,5-dihydroxy-6-(hydroxymethyl)tetrahydro-2H-pyran-3-yl)methanesulfonamide] has a Kd of 100 to 500 µM. With `O=C(N[C@@H]1CO[C@H](CO)[C@H](O)[C@@H]1O)c1ccccc1` [Compound A136, N-((3R,4R,5R,6R)-4,5-dihydroxy-6-(hydroxymethyl)tetrahydro-2H-pyran-3-yl)benzamide] the Kd was 100 to 500 µM. In the case of `OC[C@H]1OC[C@@H](Nc2nc(Cl)ns2)[C@@H](O)[C@H]1O` [Compound A146, (2R,3R,4R,5R)-5-((3-chloro-1,2,4-thiadiazol-5-yl)amino)-2-(hydroxymethyl)tetrahydro-2H-pyran-3,4-diol], the Kd is reported as < 100 µM.

Same assay, conditions: ASGPR ligands, Table 4; numeric lower bounds; read-out: ASGPR_PR Binding KD
With `CC(=O)N[C@@H]1CO[C@@H]2COC(C)(C)O[C@@H]2[C@@H]1O` [Compound A127-2c, N-((4aR,7R,8R,8aR)-8-hydroxy-2,2-dimethylhexahydropyrano[3,2-d][1,3]dioxin-7-yl)acetamide] the Kd was > 200 µM. `OC[C@H]1OC[C@@H](Nc2ccncn2)[C@@H](O)[C@H]1O` [Compound A149] was tested, and the Kd was > 20 µM. For `CS(=O)(=O)NC(=O)N[C@H]1CO[C@H](CO)[C@H](O)[C@@H]1O` [Compound A157, N-(((3S,4R,5R,6R)-4,5-dihydroxy-6-(hydroxymethyl)tetrahydro-2H-pyran-3-yl)carbamoyl)methanesulfonamide], the Kd was > 20 µM.

Same assay, conditions: extracellular protein degrading compounds, Table 3; read-out: SPR Binding External Calculation: KD (uM) ASGPR
In the case of `CC(C)C[C@H]1NC(=O)[C@@H](CC(=O)[C@@H](NC(=O)[C@H](CCC(N)=O)NC(=O)[C@H](Cc2cnc[nH]2)NC(=O)CCOCCOCCOCCOCCNC(=O)CCCc2cn(CCCC(=O)NCCOCc3cnn(CCOCCOCCOCCO[C@@]45CO[C@@H](O4)[C@H](NC(=O)C(F)(F)F)[C@@H](O)[C@H]5O)c3)nn2)C(C)C)CSSC[C@@H](C(=O)N[C@@H](Cc2ccccc2)C(=O)N[C@@H](CO)C(=O)NC(C=O)[C@@H](C)O)NC(=O)[C@H](C(C)C)NC(=O)[C@@H]2CCCN2C(=O)[C@H](CCCNC(=N)N)NC(=O)CNC(=O)[C@@H](CCCNC(=N)N)NC(=O)[C@H](Cc2ccc(O)cc2)NC(=O)[C@H](CO)CC1=O` (stereo partly shown) [Compound 26], the Kd is reported as < 100 µM.

Same assay, conditions: read-out: ASGPR_SPR Binding KD
`CO[C@@H]1O[C@H](COCCOCCOCCOCCNC(=O)CCOCC(COCCC(=O)NCCOCCOCCOCCOC[C@H]2O[C@@H](OC)[C@H](NC(C)=O)[C@@H](O)[C@H]2O)(COCCC(=O)NCCOCCOCCOCCOC[C@H]2O[C@@H](OC)[C@H](NC(C)=O)[C@@H](O)[C@H]2O)NC(=O)COCCOCCOCC(=O)N[C@@H](Cc2cnc[nH]2)C(=O)N[C@@H](CCC(N)=O)C(=O)N[C@H](C(=O)N[C@H]2CSSC[C@@H](C(=O)N[C@@H](Cc3ccccc3)C(=O)N[C@@H](CO)C(=O)N[C@H](C(N)=O)[C@@H](C)O)NC(=O)[C@H](C(C)C)NC(=O)[C@@H]3CCCN3C(=O)[C@H](CCCNC(=N)N)NC(=O)CNC(=O)[C@H](CCCNC(=N)N)NC(=O)[C@H](Cc3ccc(O)cc3)NC(=O)[C@H](CO)NC(=O)[C@H](CC(C)C)NC2=O)C(C)C)[C@H](O)[C@H](O)[C@H]1NC(C)=O` [Compound 30] (X3-HQVCLSYRGRPVCFST-NH2; disulfide 4-13) was tested, and the Kd was < 100 µM.
